Drawing on patent publication US12091411B2, “IRAK degraders and uses thereof” (Kymera Therapeutics, Inc., priority 2022, dated 2024), this text covers DC50 for 33 molecules.

Read-outs that look alike come from different tables or passages of the source.

This assay concerns the target T1, IRAK4 (Homo sapiens, UniProt Q9NWZ3).
T1 construct: Degradation of IRAK4 in OCI-LY10 was quantitatively measured using Meso Scale Discovery technology; endogenous in cells; host or cells: OCI-LY10
T1 sequence (Q9NWZ3 1-460): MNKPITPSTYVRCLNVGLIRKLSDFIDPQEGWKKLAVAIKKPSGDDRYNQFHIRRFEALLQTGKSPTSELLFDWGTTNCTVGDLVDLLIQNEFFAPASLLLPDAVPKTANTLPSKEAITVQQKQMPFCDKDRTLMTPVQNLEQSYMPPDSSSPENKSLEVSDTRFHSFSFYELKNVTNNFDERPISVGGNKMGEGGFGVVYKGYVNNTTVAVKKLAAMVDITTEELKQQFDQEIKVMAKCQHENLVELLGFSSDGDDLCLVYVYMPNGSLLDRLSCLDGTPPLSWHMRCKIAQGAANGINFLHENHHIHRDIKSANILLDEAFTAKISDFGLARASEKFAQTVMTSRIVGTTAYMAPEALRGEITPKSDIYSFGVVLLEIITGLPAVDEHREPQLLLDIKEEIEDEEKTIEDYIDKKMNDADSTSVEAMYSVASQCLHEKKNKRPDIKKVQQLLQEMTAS
Briefly: IRAK4 MSD Degradation in OCI-LY10. The conditions noted are these: OCI-LY10 cells, MSD. Type of assay: cell-based. The essentials:
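DC50, from a three-parameter logistic fit and reported as letter bins A (<0.01 μM), B, C, D (>0.2 μM or not tested), reflects IRAK4 loss measured by MSD electrochemiluminescence in OCI-LY10 lysates. Treatment: 8 doses, 1:3 steps, top 1 to 10 μM, 4 to 24 h, 37 °C.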

Setting [1] is: 4 hrs incubation, read-out: IRAK4 degradation in OCI-LY10 at 4 hrs: DC50.
Where [2] appears, read: 24 hrs incubation, read-out: IRAK4 degradation in OCI-LY10 at 24 hrs: DC50.

The term DC50 denotes the concentration at which degradation of the target reaches its halfway point. For the molecule `COc1cc2nn([C@H]3CC[C@H](CN4CCC5(CC4)CCN(c4cccc6c4n(C)c(=O)n6C4CCC(=O)NC4=O)CC5)CC3)cc2cc1NC(=O)c1cncc(S(C)(=O)=O)c1` (stereo partly drawn) [I-151], the 50% degradation concentration (DC50) is more than 200 nM under setting [1] and more than 200 nM under setting [2].

Regarding `COc1cc2nn([C@H]3CC[C@H](CN4CCC5(CC4)CCN(c4cccc6c4n(C)c(=O)n6C4CCC(=O)NC4=O)CC5)CC3)cc2cc1NC(=O)c1cncc(SC(F)(F)F)c1` (stereo partly drawn) [I-152], the DC50 is more than 200 nM under setting [1] and more than 200 nM under setting [2].

Turning to `COc1cc2nn([C@H]3CC[C@H](CN4CCC5(CC4)CCN(c4cccc6c4n(C)c(=O)n6C4CCC(=O)NC4=O)CC5)CC3)cc2cc1NC(=O)c1cncc([S+]([O-])C(F)(F)F)c1` (stereo partly drawn) [I-153], the 50% degradation concentration (DC50) runs as follows: under setting [1], more than 200 nM; under setting [2], more than 200 nM.

As for `COc1cc2nn([C@H]3CC[C@H](CN4CCC5(CC4)CCN(c4cccc6c4n(C)c(=O)n6C4CCC(=O)NC4=O)CC5)CC3)cc2cc1NC(=O)c1cncc(S(=O)(=O)C(F)(F)F)c1` (stereo partly drawn) [I-154], the DC50 under setting [1] was more than 200 nM and the DC50 under setting [2] was more than 200 nM.

Regarding `COc1cc2nn([C@H]3CC[C@H](CN4CCC5(CC4)CCN(c4cccc6c4n(C)c(=O)n6C4CCC(=O)NC4=O)CC5)CC3)cc2cc1NC(=O)c1cncc(C(F)(F)F)n1` (stereo partly drawn) [I-155], the DC50 was less than 10 nM under setting [1] and more than 200 nM under setting [2].

`COc1cc2nn([C@H]3CC[C@H](CN4CCC5(CC4)CCN(c4cccc6c4n(C)c(=O)n6C4CCC(=O)NC4=O)CC5)CC3)cc2cc1NC(=O)c1cncc(C#N)c1` (stereo partly drawn) [I-156]: the DC50 is, setting by setting: under setting [1], more than 200 nM; under setting [2], 10 to 100 nM.

`COc1cc2nn([C@H]3CC[C@H](CN4CCC5(CC4)CCN(c4cccc6c4n(C)c(=O)n6C4CCC(=O)NC4=O)CC5)CC3)cc2cc1NC(=O)c1nn(C)cc1Cl` (stereo partly drawn) [I-157]: the DC50 was less than 10 nM under setting [1] and more than 200 nM under setting [2].

Consider `Cn1c(=O)n(C2CCC(=O)NC2=O)c2cccc(N3CCC(CN4CCN(C[C@H]5CC[C@H](n6cc(NC(=O)c7cnn8ccc(N9C[C@@H]%10C[C@H]9CO%10)nc78)c(C(F)F)n6)CC5)CC4)CC3)c21` (stereo partly drawn) [I-158], for which the DC50 reads like this: under setting [1], less than 10 nM; under setting [2], more than 200 nM.

For the molecule `Cn1c(=O)n(C2CCC(=O)NC2=O)c2cccc(N3CCC(OC4CCN(C[C@H]5CC[C@H](n6cc(NC(=O)c7cnn8ccc(N9C[C@@H]%10C[C@H]9CO%10)nc78)c(C(F)F)n6)CC5)CC4)CC3)c21` (stereo partly drawn) [I-159], the DC50 by setting is: under setting [1], less than 10 nM; under setting [2], more than 200 nM.

Regarding `Cn1c(=O)n(C2CCC(=O)NC2=O)c2cccc(C#CCCC3CCN(CC4CCC(n5cc(NC(=O)c6cnn7ccc(C8C[C@H]9C[C@@H]8CO9)nc67)c(C(F)F)n5)CC4)CC3)c21` (stereo partly drawn) [I-160], the DC50 runs as follows: under setting [1], less than 10 nM; under setting [2], less than 10 nM.

In the case of `Cn1c(=O)n(C2CCC(=O)NC2=O)c2cccc(N3CCN(CC4CCN(C[C@H]5CC[C@H](n6cc(NC(=O)c7cnn8ccc(N9C[C@@H]%10C[C@H]9CO%10)nc78)c(C(F)F)n6)CC5)CC4)CC3)c21` (stereo partly drawn) [I-161], the DC50 is less than 10 nM under setting [1] and more than 200 nM under setting [2].

In the case of `Cn1c(=O)n(C2CCC(=O)NC2=O)c2cccc(C#CCCN3CCN(CC4CCC(n5cc(NC(=O)c6cnn7ccc(C8C[C@H]9C[C@@H]8CO9)nc67)c(C(F)F)n5)CC4)CC3)c21` (stereo partly drawn) [I-162], the DC50 is less than 10 nM under setting [1] and more than 200 nM under setting [2].

As to `Cn1c(=O)n(C2CCC(=O)NC2=O)c2cccc(N3CCN(CC4CCN(C[C@H]5CC[C@H](n6cc(NC(=O)c7cnn8ccc(N9C[C@H]%10C[C@@H]9CO%10)nc78)c(C(F)F)n6)CC5)CC4)CC3)c21` (stereo partly drawn) [I-163], the DC50 reads like this: under setting [1], less than 10 nM; under setting [2], more than 200 nM.

Regarding `Cn1c(=O)n(C2CCC(=O)NC2=O)c2cccc(N3CCC(CN4CCN(C[C@H]5CC[C@H](n6cc(NC(=O)c7cnn8ccc(N9C[C@H]%10C[C@@H]9CO%10)nc78)c(C(F)F)n6)CC5)CC4)CC3)c21` (stereo partly drawn) [I-164], the DC50 is, setting by setting: under setting [1], less than 10 nM; under setting [2], more than 200 nM.

Consider `Cn1c(=O)n(C2CCC(=O)NC2=O)c2cccc(N3CCC(OC4CCN(C[C@H]5CC[C@H](n6cc(NC(=O)c7cnn8ccc(N9C[C@H]%10C[C@@H]9CO%10)nc78)c(C(F)F)n6)CC5)CC4)CC3)c21` (stereo partly drawn) [I-165], for which the DC50 reads like this: under setting [1], less than 10 nM; under setting [2], more than 200 nM.

`Cn1c(=O)n(C2CCC(=O)NC2=O)c2cccc(C#CCOC3CCN(C[C@H]4CC[C@H](n5cc(NC(=O)c6cnn7ccc(N8C[C@H]9C[C@@H]8CO9)nc67)c(C(F)(F)F)n5)CC4)CC3)c21` (stereo partly drawn) [I-166]: the DC50 by setting is: under setting [1], 10 to 100 nM; under setting [2], more than 200 nM.

Consider `Cn1c(=O)n(C2CCC(=O)NC2=O)c2cccc(C#CCOC3CCN(C[C@H]4CC[C@H](n5cc(NC(=O)c6cnn7ccc(N8C[C@H]9C[C@@H]8CO9)nc67)c(Cl)n5)CC4)CC3)c21` (stereo partly drawn) [I-167], for which the DC50 was more than 200 nM under setting [1] and 10 to 100 nM under setting [2].

As to `Cc1nn([C@H]2CC[C@H](CN3CCC(OCC#Cc4cccc5c4n(C)c(=O)n5C4CCC(=O)NC4=O)CC3)CC2)cc1NC(=O)c1cnn2ccc(N3C[C@H]4C[C@@H]3CO4)nc12` (stereo partly drawn) [I-168], the DC50 under setting [1] is more than 200 nM and the half-maximal degradation concentration (DC50) under setting [2] is more than 200 nM.

Consider `COc1nn([C@H]2CC[C@H](CN3CCC(OCC#Cc4cccc5c4n(C)c(=O)n5C4CCC(=O)NC4=O)CC3)CC2)cc1NC(=O)c1cnn2ccc(N3C[C@H]4C[C@@H]3CO4)nc12` (stereo partly drawn) [I-169], for which the DC50 under setting [1] is more than 200 nM and the DC50 under setting [2] is more than 200 nM.

For `Cc1ccc(-c2nn([C@H]3CC[C@H](CN4CCC(OCC#Cc5cccc6c5n(C)c(=O)n6C5CCC(=O)NC5=O)CC4)CC3)cc2NC(=O)c2cnn3cccnc23)nc1` (stereo partly drawn) [I-170], the DC50 is more than 200 nM under setting [1] and 10 to 100 nM under setting [2].

For the molecule `Cc1ccc(-c2nn([C@H]3CC[C@H](CN4CCC(OCC#Cc5cccc6c5n(C)c(=O)n6C5CCC(=O)NC5=O)CC4)CC3)cc2NC(=O)c2cnn3cccnc23)c(F)c1` (stereo partly drawn) [I-171], the DC50 by setting is: under setting [1], more than 200 nM; under setting [2], 10 to 100 nM.

On to `Cc1ccc(-c2nn([C@H]3CC[C@H](CN4CCC(OCC#Cc5cccc6c5n(C)c(=O)n6C5CCC(=O)NC5=O)CC4)CC3)cc2NC(=O)c2cnn3cccnc23)cc1` (stereo partly drawn) [I-172], for which the DC50 was more than 200 nM under setting [1] and 10 to 100 nM under setting [2].

Turning to `Cc1ccc(-c2nn([C@H]3CC[C@H](CN4CCC(OCC#Cc5cccc6c5n(C)c(=O)n6C5CCC(=O)NC5=O)CC4)CC3)cc2NC(=O)c2cnn3cccnc23)nc1` (stereo partly drawn) [I-173], the DC50 under setting [1] is more than 200 nM and the DC50 under setting [2] lay within 10 to 100 nM.

`Cn1c(=O)n(C2CCC(=O)NC2=O)c2cccc(C#CCOC3CCN(C[C@H]4CC[C@H](n5cc(NC(=O)c6cnn7ccc(N8C[C@H]9C[C@@H]8CO9)nc67)c(C(C)(C)O)n5)CC4)CC3)c21` (stereo partly drawn) [I-174]: the DC50 is, setting by setting: under setting [1], more than 200 nM; under setting [2], more than 200 nM.

Turning to `Cn1c(=O)n(C2CCC(=O)NC2=O)c2cccc(C#CCOC3CCN(C[C@H]4CC[C@H](c5ccc(C(F)F)c(NC(=O)c6cnn7ccc(N8C[C@H]9C[C@@H]8CO9)nc67)c5)CC4)CC3)c21` (stereo partly drawn) [I-175], the DC50 by setting is: under setting [1], more than 200 nM; under setting [2], more than 200 nM.

Turning to `Cn1c(=O)n(C2CCC(=O)NC2=O)c2cccc(C#CCOC3CCN(CC4CCN(c5ccc(C(F)F)c(NC(=O)c6cnn7ccc(N8C[C@H]9C[C@@H]8CO9)nc67)c5)CC4)CC3)c21` (stereo partly drawn) [I-176], the DC50 reads like this: under setting [1], more than 200 nM; under setting [2], more than 200 nM.

For `COc1ccc([C@H]2CC[C@H](CN3CCC(OCC#Cc4cccc5c4n(C)c(=O)n5C4CCC(=O)NC4=O)CC3)CC2)cc1NC(=O)c1cnn2ccc(N3C[C@H]4C[C@@H]3CO4)nc12` (stereo partly drawn) [I-177], the DC50 is more than 200 nM under setting [1] and more than 200 nM under setting [2].

On to `Cn1c(=O)n(C2CCC(=O)NC2=O)c2cccc(C#CCOC3CCN(C[C@H]4CC[C@H](c5cnc(C(F)F)c(NC(=O)c6cnn7ccc(N8C[C@H]9C[C@@H]8CO9)nc67)c5)CC4)CC3)c21` (stereo partly drawn) [I-178], for which the DC50 runs as follows: under setting [1], more than 200 nM; under setting [2], more than 200 nM.

With `Cn1c(=O)n(C2CCC(=O)NC2=O)c2cccc(C#CCOC3CCN(CC4CCN(c5cnc(C(F)F)c(NC(=O)c6cnn7ccc(N8C[C@H]9C[C@@H]8CO9)nc67)c5)CC4)CC3)c21` (stereo partly drawn) [I-179], the DC50 reads like this: under setting [1], more than 200 nM; under setting [2], more than 200 nM.

For `COc1ncc([C@H]2CC[C@H](CN3CCC(OCC#Cc4cccc5c4n(C)c(=O)n5C4CCC(=O)NC4=O)CC3)CC2)cc1NC(=O)c1cnn2ccc(N3C[C@H]4C[C@@H]3CO4)nc12` (stereo partly drawn) [I-180], the DC50 runs as follows: under setting [1], more than 200 nM; under setting [2], more than 200 nM.

As to `Cn1c(=O)n(C2CCC(=O)NC2=O)c2cccc(C#CCOC3CCN(C[C@H]4CC[C@H](c5ccc(NC(=O)c6cnn7ccc(N8C[C@H]9C[C@@H]8CO9)nc67)c(C(F)F)n5)CC4)CC3)c21` (stereo partly drawn) [I-181], the DC50 is, setting by setting: under setting [1], more than 200 nM; under setting [2], more than 200 nM.

For `Cn1c(=O)n(C2CCC(=O)NC2=O)c2cccc(C#CCOC3CCN(C[C@H]4CC[C@H](c5ccc(NC(=O)c6cnn7ccc(N8C[C@H]9C[C@@H]8CO9)nc67)c(C(F)F)c5)CC4)CC3)c21` (stereo partly drawn) [I-182], the DC50 under setting [1] was more than 200 nM and the DC50 under setting [2] is more than 200 nM.

Turning to `COc1nc([C@H]2CC[C@H](CN3CCC(OCC#Cc4cccc5c4n(C)c(=O)n5C4CCC(=O)NC4=O)CC3)CC2)ccc1NC(=O)c1cnn2ccc(N3C[C@H]4C[C@@H]3CO4)nc12` (stereo partly drawn) [I-183], the DC50 reads like this: under setting [1], more than 200 nM; under setting [2], more than 200 nM.
